Marks after values point to notes of the source that are not given here.
Tests used:
[1] = system: U251MG human glioma cells; test: In-vitro anti-cancer activity screening, SRB method, U251MG; format: cell-based; details: U-251
Protocol: (§1) Referring to the method of example 9, two tumor cell lines, U251MG and U251TR human glioma cells, were selected, and temozolomide and the compounds of the present disclosure were subjected to in-vitro anti-cancer activity screening using the SRB method.

[2] = system: human glioma cells (U87); test: In-vitro growth inhibition, MTT method, U87; format: cell-based; details: Glioma cell, 48 h
Protocol: (§2) The in-vitro growth inhibitory activity of compounds 1 to 8 of the present disclosure against human glioma cells (U87 and LN229), human hepatoma cells (SMMC-7721) and human pancreatic carcinoma cells (Panc1) was studied adopting the MTT method.
U87, LN229, SMMC-7721 and Panc1 cells growing at log phase were separately inoculated into a 96-well plate at a density of 5×10^4 cells/mL, 180 μL/well. […] After 48 h of action, a 5 mg/mL MTT solution (20 μL/well) was added. After the cells were incubated in a CO2 incubator for 3 to 4 h, the supernatant was carefully discarded. After the residual liquid was air-dried, acidified isopropanol (50 μL of concentrated hydrochloric acid dissolved in 500 mL of isopropanol) was added at […], and the plate was shaken on a shaker for 30 min. After the crystals were completely dissolved, absorbance OD values were measured by a microplate reader at 570 nm.
(§3) Cell viability %=(drug-treated cell OD−blank group OD)/(control cell OD−blank group OD)×100
(§4) Cell killing rate %=1−cell viability %

[3] = system: U251TR human glioma cells; test: In-vitro anti-cancer activity screening, SRB method, U251TR; format: cell-based; details: Glioma cell, drug-resistant strain
Protocol: as §1

[4] = system: human pancreatic carcinoma cells (Panc1); test: In-vitro growth inhibition, MTT method, Panc1; format: cell-based; details: PANC-1, 48 h
Protocol: as §2
(§5) U87, LN229, SMMC-7721 and Panc1 cells growing at log phase were separately inoculated into a 96-well plate at a density of 5×10^4 cells/mL, 180 μL/well. After the cells were attached to the wall, 20 μL of a drug liquid was added to each well, so that the final concentrations of the drug were 0 μM, 5 μM, 10 μM, 20 μM and 50 μM. After 48 h of action, a 5 mg/mL MTT solution (20 μL/well) was added. After the cells were incubated in a CO2 incubator for 3 to 4 h, the supernatant was carefully discarded. After the residual liquid was air-dried, acidified isopropanol (50 μL of concentrated hydrochloric acid dissolved in 500 mL of isopropanol) was added at […], and the plate was shaken on a shaker for 30 min. After the crystals were completely dissolved, absorbance OD values were measured by a microplate reader at 570 nm.
as §3, §4

[5] = system: human hepatoma cells (SMMC-7721); test: In-vitro growth inhibition, MTT method, SMMC-7721; format: cell-based; details: 48 h
Protocol: as §2, §5, §3, §4

[6] = system: human glioma cell U87; test: Tumor volume inhibition rate, i.v. dosing; format: in vivo, Balb/c nude mice; details: Mus musculus, iv, TMZ 10 mg·kg^−1, i.v.
Protocol: In addition, low-dosage 0409 (20 mg·kg^−1, i.v.) and TMZ (10 mg·kg^−1, i.v.) were synchronously used for an assay to determine the volume tumor inhibition rate.

[7] = system: human glioma cells (LN229); test: In-vitro growth inhibition, MTT method, LN229; format: cell-based; details: LN-229, 48 h
Protocol: as §2, §5, §3, §4

[8] = system: human glioma cell U87; test: Pharmacodynamic study in human glioma cell U87 subcutaneous model; format: in vivo, Balb/c nude mice; details: compounds 20 mg/Kg, q.d.×14 days
Description: The route of administration was intragastric administration ([…]., q.d.×14 days).

[9] = system: human glioma cell U87; test: In-vivo antitumor activity, U87 tumor-bearing nude mice, i.g. dosing; parameters: species or system Balb/c nude mice; details: temozolomide group 30 mg·kg^−1, i.g., q.d., end of the experiment; for Tumor volume: 11 days
Description: The tumor emergence rate was 100%.
The solvent was freshly prepared when needed each day.

[10] = 240 h, Day 10, 20 mg·kg^−1, i.v.
[11] = 264 h, Day 11, 20 mg·kg^−1, i.v.
[12] = 288 h, Day 12, 20 mg·kg^−1, i.v.
[13] = 312 h, Day 13, 20 mg·kg^−1, i.v.
[14] = 336 h, Day 14, 20 mg·kg^−1, i.v.
[15] = 360 h, Day 15, 20 mg·kg^−1, i.v.
[16] = 384 h, Day 16, 20 mg·kg^−1, i.v.
[17] = 408 h, Day 17, 20 mg·kg^−1, i.v.
[18] = 432 h, Day 18, 20 mg·kg^−1, i.v.

Compound | IC50 [1] | IC50 [2] | IC50 [3] | IC50 [4] | IC50 [5] | inhibition in vivo at 20 mg/kg [6, 10] | inhibition in vivo at 20 mg/kg [6, 11] | inhibition in vivo at 20 mg/kg [6, 12] | inhibition in vivo at 20 mg/kg [6, 13] | inhibition in vivo at 20 mg/kg [6, 14] | inhibition in vivo at 20 mg/kg [6, 15] | inhibition in vivo at 20 mg/kg [6, 16] | inhibition in vivo at 20 mg/kg [6, 17] | inhibition in vivo at 20 mg/kg [6, 18] | IC50 [7] | Tumor inhibition rate ([8]; Day 1) | Tumor inhibition rate ([8]; Day 4) | Tumor inhibition rate ([8]; Day 7) | Tumor inhibition rate ([8]; Day 10) | Tumor inhibition rate ([8]; Day 14 (end of the experiment)) | also measured
Cn1nnc2c(C(=O)NCCn3[se]c4ccc(F)cc4c3=O)ncn2c1=O [Compound 2, 3,4-dihydro-3-methyl-4-oxo-N-(3(2H)-oxo-5-fluoro-1,2-benzisoselenazol-2-yl)-ethyl-imidazo[5,1-d]-1,2,3,5-tetrazine-8-carboxamide] | 363 ± 21.4 µM | > 500 µM | > 500 µM | 22.2 ± 8.78 µM | 16.4 ± 3.59 µM | 85% | 84.6% | 82.9% | 85.8% | 86.3% | 85.8% | 84.4% | 86.7% | 86.5% | 52.2 ± 10.7 µM |  |  |  |  |  | 
Cc1ccc2c(=O)n(CCNC(=O)c3ncn4c(=O)n(C)nnc34)[se]c2c1 [Compound 8, 3,4-dihydro-3-methyl-4-oxo-N-(3(2H)-oxo-6-methyl-1,2-benzisoselenazol-2-yl)-ethyl-imidazo[5,1-d]-1,2,3,5-tetrazine-8-carboxamide] | 9.13 ± 1.52 µM | 20.4 ± 3.13 µM | 16.2 ± 1.67 µM | 8.65 ± 3.52 µM | 3.35 ± 2.13 µM | 86.5% | 86.2% | 87.2% | 88.2% | 92.5% | 87.7% | 87% | 88.5% | 89.1% | 13.7 ± 2.52 µM | −0.20% | 58.48% | 83.03% | 80.92% | 82.68% | 
Cn1nnc2c(C(=O)NCCn3[se]c4ccc(Br)cc4c3=O)ncn2c1=O [Compound 5, 3,4-dihydro-3-methyl-4-oxo-N-(3(2H)-oxo-5-bromo-1,2-benzisoselenazol-2-yl)-ethyl-imidazo[5,1-d]-1,2,3,5-tetrazine-8-carboxamide] | 61.7 ± 5.79 µM | 35.8 ± 6.27 µM | 56.2 ± 11.7 µM | 4.41 ± 2.89 µM | 7.77 ± 3.28 µM | 27.1% | 27% | 36.8% | 36.8% | 44.6% | 59.5% | 61.2% | 58.5% | 64.4% | 14.4 ± 3.89 µM |  |  |  |  |  | 
Cn1nnc2c(C(N)=O)ncn2c1=O [TMZ, temozolomide, reference compound] | 431 ± 25.8 µM | 373 ± 24.1 µM | > 500 µM |  |  | 36.7% | 58.9% | 38% | 38.1% | 24.4% | 63.9% | 54.3% | 51% | 54.5% | > 500 µM | 6.77% | 38.14% | 54.29% | 46.23% | 14.26% | Tumor volume [9]: 209.18±57.83 mm^3; Tumor volume ([9]; listed as Temozolomide): 209.18 ± 57.83*** mm^3; Tumor proliferation inhibition rate [9]: 62.75%; Tumor weight [9]: 0.29 ± 0.07 g; Tumor weight ([9]; listed as Temozolomide): 0.29 ± 0.07 g

— patent US20230167120A1, “ARYL-FUSED ISOSELENAZOLE COMPOUND CONTAINING TETRAZINE SUBSTITUENT, SYNTHESIS METHOD THEREFOR, AND USE THEREOF” (KEAISE MEDICINE WUHAN CORP., priority 2020, published 2023)
